Assay results reported in US6417213B2, “Tricyclic compound, their production and use” (Takeda Chemical Industries, Ltd., priority 1996, dated 2002).

Legend:
[1] = target: T1, human PGI2 receptors (Homo sapiens, UniProt P43119); assay: PGI2 receptor binding assay; conditions: membrane fraction of CHO cells expressing human PGI2 receptors, [3H]Iloprost 20 nM, pH 6.0, 37° C. 1 hour; read-out: IC50, inhibition of [3H]Iloprost binding to the human PGI2 receptor
T1 construct: expressed in transfected cells; host or cells: CHO cells (membrane fraction)
Experimental: PGI2 receptor binding assay
MES-NaOH buffer (pH 6.0) (500 μL) containing the membrane fraction (40 μg) of CHO cells caused to express human PGI2 receptors, [^3H]Iloprost (20 nM), and a test compound solution (50 μL) was incubated at 37° C. for 1 hour and then filtered through a membrane filter to separate the membrane-bound [^3H]Iloprost from the non-membrane-binding [^3H]Iloprost. The radioactivity of the membrane-bound [^3H]Iloprost was determined with a liquid scintillation counter and the binding inhibition rate in each drug treatment group was determined against the specific binding of [^3H]Iloprost to the human PGI2 receptor in the control (solvent) group.
The test compound was added at the final concentrations of 10^−6 to 10^−11 M and the IC50 values were calculated from the inhibition rates at the respective concentrations.

[2] = tested on: human platelets; assay: Platelet aggregation inhibition assay; format: cell-based; conditions: ADP-induced aggregation, platelet-rich plasma from healthy male adult donors, 37° C.
Experimental: Platelet aggregation inhibition assay
The citrated blood from healthy male adult donors was centrifuged at 1000×g for […] and 20 minutes to harvest platelet-rich plasma (PRP) and platelet-poor plasma (PPP), respectively. Then, PRP was diluted with PPP to a platelet count of 300,000/μL. The degree of platelet aggregation was measured with a platelet aggregation measuring apparatus.
In the assay cuvette, 200 μL of PRP was incubated at 37° C. for 2 minutes. Then, 20 μL of a test drug solution was added and the mixture was further incubated for 2 minutes. Thereafter, aggregation was induced by adding 20 μl of ADP solution. The aggregation in the drug treatment group was compared with the maximum aggregation in the control group to find the inhibition rate. ADP was used in the minimal concentration (2×10^−6 to 3×10^−5 M) inducing maximal aggregation in each assay.
The test compound was added at the final concentrations of 10^−3 to 10^−9 and the IC50 value was calculated from the inhibition rates at the respective concentrations.

T1 sequence (P43119 whole entry): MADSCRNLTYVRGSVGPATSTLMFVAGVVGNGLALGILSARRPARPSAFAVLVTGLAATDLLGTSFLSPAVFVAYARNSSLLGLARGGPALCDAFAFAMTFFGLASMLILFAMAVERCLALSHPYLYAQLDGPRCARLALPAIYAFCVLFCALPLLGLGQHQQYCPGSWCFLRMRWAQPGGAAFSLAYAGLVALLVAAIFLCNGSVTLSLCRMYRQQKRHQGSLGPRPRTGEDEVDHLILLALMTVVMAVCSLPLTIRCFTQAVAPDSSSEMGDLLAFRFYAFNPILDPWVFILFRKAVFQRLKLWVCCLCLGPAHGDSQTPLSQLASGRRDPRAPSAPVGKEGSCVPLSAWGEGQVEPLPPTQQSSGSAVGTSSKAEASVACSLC

SMILES	IC50 [1]	IC50 [2]
O=C(O)COc1cccc2c1CCc1sc(SCC(c3ccccc3)c3ccccc3)nc1-2 [Example 1, [[2-(2,2-Diphenylethyl)thio-4,5-dihydronaphtho[1,2-d]thiazol-6-yl]oxy]acetic acid]	24 nM	540 nM
O=C(O)COc1cccc2c1OCc1sc(SCCC(c3ccccc3)c3ccccc3)nc1-2 [Example 11, [[2-(3,3-Diphenylpropyl)thio-4H-[1]benzopyrano[4,3-d]thiazol-6-yl]oxy]acetate acid]	81 nM	

Now from value to compound, other results behind:

IC50 [1]	SMILES	IC50 [2]
61 nM	O=C(O)COc1cccc2c1OCc1sc(SCC(c3ccccc3)c3ccccc3)nc1-2 [Example 12, [[2-(2,2-Diphenylethyl)thio-4H-[1]benzopyrano[4,3-d]thiazol-6-yl]oxy]acetic acid]	
2 nM	O=C(O)COc1cccc2c1CCc1sc(SC(c3ccccc3)c3ccccc3)nc1-2 [Example 21, [(2-Diphenylmethylthio-4,5-dihydronaphtho[1,2-d]thiazol-6-yl)oxy]acetic acid]	210 nM
21 nM	O=C(O)COc1cccc2c1CCc1sc(S(=O)(=O)CC(c3ccccc3)c3ccccc3)nc1-2 [Example 29, [[2-(2,2-Diphenylethyl)sulfonyl-4,5-dihydronaphtho[1,2-d]thiazol-6-yl]oxy]acetic acid]	
